This note sets out measurements from patent US20100261723A1, “TRISUBSTITUTED PYRIMIDINE DERIVATIVES FOR THE TREATMENT OF PROLIFERATIVE DISEASES” (ASTRAZENECA AB, priority 2007, published 2010).

For the experiment, the target named is T1, mTOR kinase (Homo sapiens, UniProt P42345).
T1 construct: FLAG; made in house
Briefly: In vitro mTOR kinase assay, Test (a)(i) (AlphaScreen). The class given is biochemical. The note with it: recombinant FLAG-tagged mTOR (1362-2549), ATP 20 μM; read-out: Test (a)(i) IC50. On the procedure: (a)(i) In Vitro mTOR Kinase Assay
A C-terminal truncation of mTOR encompassing amino acid residues 1362 to 2549 of mTOR (EMBL Accession No. L34075) was stably expressed as a FLAG-tagged fusion in HEK293 cells as described by Vilella-Bach et al., […], 1999, 274, 4266-4272. The HEK293 FLAG-tagged mTOR (1362-2549) stable cell line was routinely maintained at 37° C. with 5% CO2 up to a confluency of 70-90% in Dulbecco's modified Eagle's growth medium (DMEM; Invitrogen Limited, Paisley, UK Catalogue No. 41966-029) containing 10% heat-inactivated foetal calf serum (FCS; Sigma, Poole, Dorset, UK, Catalogue No. F0392), 1% L-glutamine (Gibco, Catalogue No. 25030-024) and 2 mg/ml Geneticin (G418 sulfate; Invitrogen Limited, UK Catalogue No. 10131-027). Following expression in the mammalian HEK293 cell line, expressed protein was purified using the FLAG epitope tag using standard purification techniques.
A 30 μl mixture of recombinant purified mTOR enzyme, 1 μM biotinylated peptide substrate (Biotin-Ahx-[…]NH2; Bachem UK Ltd), ATP (20 μM) and a buffer solution [comprising Tris-HCl pH7.4 buffer (50 mM), EGTA (0.1 mM), bovine serum albumin (0.5 mg/mL), DTT (1.25 mM) and manganese chloride (10 mM)] was agitated at room temperature for 90 minutes.
These assay solutions were incubated for 2 hours at room temperature.
Phosphorylated biotinylated peptide is formed in situ as a result of mTOR mediated phosphorylation. The phosphorylated biotinylated peptide that is associated with AlphaScreen Streptavidin donor beads forms a complex with the p70 S6 Kinase (T389) 1A5 Monoclonal Antibody that is associated with Alphascreen Protein A acceptor beads. […] Accordingly, the presence of mTOR kinase activity results in an assay signal. In the presence of an mTOR kinase inhibitor, signal strength is reduced.
For orientation: Alpha assays give light when donor and acceptor beads are brought close together.

Structures are written as SMILES.

T1 sequence (P42345 1362-2549): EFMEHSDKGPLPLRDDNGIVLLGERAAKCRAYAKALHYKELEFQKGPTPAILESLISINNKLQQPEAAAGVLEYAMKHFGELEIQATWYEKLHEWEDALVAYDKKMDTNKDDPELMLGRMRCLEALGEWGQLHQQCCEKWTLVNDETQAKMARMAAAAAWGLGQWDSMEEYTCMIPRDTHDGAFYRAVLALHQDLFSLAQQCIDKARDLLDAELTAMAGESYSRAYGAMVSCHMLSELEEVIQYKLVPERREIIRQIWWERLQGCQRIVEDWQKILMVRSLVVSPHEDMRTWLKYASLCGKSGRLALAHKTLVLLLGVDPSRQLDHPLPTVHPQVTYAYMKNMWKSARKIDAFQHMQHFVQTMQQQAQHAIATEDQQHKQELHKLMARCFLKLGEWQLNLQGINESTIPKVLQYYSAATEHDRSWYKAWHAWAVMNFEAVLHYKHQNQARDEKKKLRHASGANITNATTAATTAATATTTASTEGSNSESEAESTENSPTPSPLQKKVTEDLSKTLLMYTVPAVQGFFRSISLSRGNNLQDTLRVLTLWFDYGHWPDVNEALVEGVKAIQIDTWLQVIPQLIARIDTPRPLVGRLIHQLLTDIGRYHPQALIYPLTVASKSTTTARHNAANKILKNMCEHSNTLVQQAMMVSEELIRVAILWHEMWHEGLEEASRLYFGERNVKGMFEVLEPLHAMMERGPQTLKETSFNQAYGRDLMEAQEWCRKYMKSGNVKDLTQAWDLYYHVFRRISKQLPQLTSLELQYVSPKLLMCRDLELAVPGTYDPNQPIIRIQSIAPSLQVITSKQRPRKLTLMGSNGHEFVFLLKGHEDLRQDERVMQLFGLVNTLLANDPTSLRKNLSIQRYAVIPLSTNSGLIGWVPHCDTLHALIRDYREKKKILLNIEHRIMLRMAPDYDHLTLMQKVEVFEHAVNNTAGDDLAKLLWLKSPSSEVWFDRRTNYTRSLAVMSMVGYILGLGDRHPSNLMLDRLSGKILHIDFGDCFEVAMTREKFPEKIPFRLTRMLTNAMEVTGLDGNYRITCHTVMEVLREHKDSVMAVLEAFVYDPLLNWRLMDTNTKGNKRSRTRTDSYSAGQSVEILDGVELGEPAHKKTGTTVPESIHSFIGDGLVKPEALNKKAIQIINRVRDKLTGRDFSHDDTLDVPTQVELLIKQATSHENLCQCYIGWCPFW

Turning to `C[C@H]1COCCN1c1cc(CS(C)(=O)=O)nc(-c2ccc(NC(=O)c3ccno3)cc2)n1` [Example 2, N-[4-[4-[(3S)-3-Methylmorpholin-4-yl]-6-(methylsulfonylmethyl)pyrimidin-2-yl]phenyl]-1,2-oxazole-5-carboxamide], the IC50 (as a rule, the point on the concentration scale where inhibition reaches its midpoint) came out at 0.0909 µM.
Consider `CS(=O)(=O)Cc1cc(N2CCOCC2)nc(-c2ccc(NC(=O)CCc3ccco3)cc2)n1` [Example 5q, 3-(2-furyl)-N-[4-[4-(methylsulfonylmethyl)-6-morpholin-4-yl-pyrimidin-2-yl]phenyl]propanamide], for which the IC50 is 4.85 µM.
Regarding `CS(=O)(=O)Cc1cc(N2CCOCC2)nc(-c2ccc(NC(=O)C(N)=O)cc2)n1` [Example 5s, N-[4-[4-(methylsulfonylmethyl)-6-morpholin-4-yl-pyrimidin-2-yl]phenyl]oxamide], the IC50 came out at 2.29 µM.
`CS(=O)(=O)Cc1cc(N2CCOCC2)nc(-c2ccc(NC(=O)c3ccco3)cc2)n1` [Example 5i, N-[4-[4-(methylsulfonylmethyl)-6-morpholin-4-yl-pyrimidin-2-yl]phenyl]furan-2-carboxamide]: the IC50 turned out to be 1.42 µM.
`CS(=O)(=O)Cc1cc(N2CCOCC2)nc(-c2ccc(NC(=O)CN3CCCC3=O)cc2)n1` [Example 5aj, N-[4-[4-(methylsulfonylmethyl)-6-morpholin-4-yl-pyrimidin-2-yl]phenyl]-2-(2-oxopyrrolidin-1-yl)acetamide]: the 50% inhibitory concentration (IC50) stood at 9.7 µM.
On to `CCCC(=O)Nc1ccc(-c2nc(CS(C)(=O)=O)cc(N3CCOCC3)n2)cc1` [Example 5b, N-[4-[4-(methylsulfonylmethyl)-6-morpholin-4-yl-pyrimidin-2-yl]phenyl]butanamide], for which the IC50 is 0.669 µM.
Consider `CS(=O)(=O)Cc1cc(N2CCOCC2)nc(-c2ccc(NC(=O)C3CCOC3)cc2)n1` (stereo not drawn) [Example 5u, N-[4-[4-(methylsulfonylmethyl)-6-morpholin-4-yl-pyrimidin-2-yl]phenyl]oxolane-3-carboxamide], for which the IC50 was determined as 4.84 µM.
Turning to `C[C@H]1COCCN1c1cc(CS(C)(=O)=O)nc(-c2ccc(N(C)C(=O)c3ccno3)cc2)n1` [Example 7, N-Methyl-N-[4-[4-[(3S)-3-methylmorpholin-4-yl]-6-(methylsulfonylmethyl)pyrimidin-2-yl]phenyl]-1,2-oxazole-5-carboxamide], the IC50 was determined as 0.24 µM.
Take `CS(=O)(=O)Cc1cc(N2CCOCC2)nc(-c2ccc(NC(=O)CC(F)(F)F)cc2)n1` [Example 5aq, 3,3,3-trifluoro-N-[4-[4-(methylsulfonylmethyl)-6-morpholin-4-yl-pyrimidin-2-yl]phenyl]propanamide]: the IC50 is 0.609 µM.
In the case of `CC(=O)NC(C)C(=O)Nc1ccc(-c2nc(CS(C)(=O)=O)cc(N3CCOCC3)n2)cc1` (stereo not drawn) [Example 5d, 2-acetamido-N-[4-[4-(methylsulfonylmethyl)-6-morpholin-4-yl-pyrimidin-2-yl]phenyl]propanamide], the IC50 came to 7.17 µM.
`CS(=O)(=O)Cc1cc(N2CCOCC2)nc(-c2ccc(NC(=O)Cn3ccnc3)cc2)n1` [Example 5y, 2-imidazol-1-yl-N-[4-[4-(methylsulfonylmethyl)-6-morpholin-4-yl-pyrimidin-2-yl]phenyl]acetamide]: the IC50 came to 2.52 µM.
`CS(=O)(=O)Cc1cc(N2CCOCC2)nc(-c2ccc(NC(=O)C3CCOCC3)cc2)n1` [Example 5ac, N-[4-[4-(methylsulfonylmethyl)-6-morpholin-4-yl-pyrimidin-2-yl]phenyl]oxane-4-carboxamide]: the IC50 came to 5.38 µM.
Turning to `C[C@H]1COCCN1c1cc(CS(C)(=O)=O)nc(-c2cccc(NC(=O)c3ccno3)c2)n1` [Example 7a, N-[3-[4-[(3S)-3-methylmorpholin-4-yl]-6-(methylsulfonylmethyl)pyrimidin-2-yl]phenyl]-1,2-oxazole-5-carboxamide], the concentration for half-maximal inhibition (IC50) is 1.98 µM.
For `CS(=O)(=O)Cc1cc(N2CCOCC2)nc(-c2ccc(NC(=O)C3(C#N)CC3)cc2)n1` [Example 5at, 1-cyano-N-[4-[4-(methylsulfonylmethyl)-6-morpholin-4-yl-pyrimidin-2-yl]phenyl]cyclopropane-1-carboxamide], the IC50 is 1.01 µM.
`CS(=O)(=O)Cc1cc(N2CCOCC2)nc(-c2ccc(NC(=O)C3=COCCC3)cc2)n1` [Example 5ag, N-[4-[4-(methylsulfonylmethyl)-6-morpholin-4-yl-pyrimidin-2-yl]phenyl]-5,6-dihydro-4H-pyran-3-carboxamide]: the IC50 is 2.76 µM.
`CS(=O)(=O)Cc1cc(N2CCOCC2)nc(-c2ccc(NC(=O)c3csnn3)cc2)n1` [Example 5as, N-[4-[4-(methylsulfonylmethyl)-6-morpholin-4-yl-pyrimidin-2-yl]phenyl]thiadiazole-4-carboxamide]: the IC50 is 0.36 µM.
As for `CS(=O)(=O)Cc1cc(N2CCOCC2)nc(-c2ccc(NC(=O)C3CC3)cc2)n1` [Example 5n, N-[4-[4-(methylsulfonylmethyl)-6-morpholin-4-yl-pyrimidin-2-yl]phenyl] cyclopropanecarboxamide], the IC50 is 0.614 µM.
Then `CS(=O)(=O)Cc1cc(N2CCOCC2)nc(-c2ccc(NC(=O)c3ccno3)cc2)n1` [Example 5v, N-[4-[4-(methylsulfonylmethyl)-6-morpholin-4-yl-pyrimidin-2-yl]phenyl]-1,2-oxazole-5-carboxamide], with 0.0369 µM.
For the compound `CCOCCC(=O)Nc1ccc(-c2nc(CS(C)(=O)=O)cc(N3CCOCC3)n2)cc1` [Example 5l, 3-ethoxy-N-[4-[4-(methylsulfonylmethyl)-6-morpholin-4-yl-pyrimidin-2-yl]phenyl]propanamide], the IC50 stood at 2 µM.
Regarding `CS(=O)(=O)Cc1cc(N2CCOCC2)nc(-c2ccc(NC(=O)c3cc[nH]n3)cc2)n1` [Example 5ae, N-[4-[4-(methylsulfonylmethyl)-6-morpholin-4-yl-pyrimidin-2-yl]phenyl]-1H-pyrazole-3-carboxamide], the IC50 was 1.81 µM.
Then `C[C@H]1COCCN1c1cc(CS(C)(=O)=O)nc(-c2ccc(NC(=O)CO)cc2)n1` [Example 3, 2-Hydroxy-N-[4-[4-[(3S)-3-methylmorpholin-4-yl]-6-(methylsulfonylmethyl)pyrimidin-2-yl]phenyl]acetamide], with 0.238 µM.
The same measure for `CC(=O)NCCC(=O)Nc1ccc(-c2nc(CS(C)(=O)=O)cc(N3CCOCC3)n2)cc1` [Example 5ad, 3-acetamido-N-[4-[4-(methylsulfonylmethyl)-6-morpholin-4-yl-pyrimidin-2-yl]phenyl]propanamide]: 3.99 µM; for `CS(=O)(=O)Cc1cc(N2CCOCC2)nc(-c2ccc(NC(=O)CCC#N)cc2)n1` [Example 5au, 3-cyano-N-[4-[4-(methylsulfonylmethyl)-6-morpholin-4-yl-pyrimidin-2-yl]phenyl]propanamide]: 0.165 µM; for `CC(=O)NCC(=O)Nc1ccc(-c2nc(CS(C)(=O)=O)cc(N3CCOCC3)n2)cc1` [Example 5c, N-[[4-[4-(methylsulfonylmethyl)-6-morpholin-4-yl-pyrimidin-2-yl]phenyl]carbamoylmethyl] acetamide]: 1.37 µM.
